Converted amounts (≈) assume the structure as drawn.
What was measured:
Staphylococcus aureus = test: Antimicrobial activity against Staphylococcus aureus after 18 to 20 hr by agar dilution method; format: functional
Escherichia coli [1] = test: Antibacterial activity against Escherichia coli NCTC 10418 infected in po dosed CF mouse compound administered 1 hr prior and 4 hr post infection; format: functional; details: NCTC 10418, po
[2] = Cytotoxicity against Homo sapiens (human) MT4 cells after 5 days by MTT assay; format: cell-based
[3] = tested on: Human immunodeficiency virus 1; test: Antiviral activity against Human immunodeficiency virus 1 IIIB infected CEM cells assessed as inhibition of virus-induced cytopathicity after 6 days by XTT assay; format: functional, organism-based; details: CCRF-CEM, 144 h
Vero = test: Cytotoxicity against Chlorocebus aethiops (African green monkey) Vero cells up to 62.5 ug/ml; format: cell-based; details: chlorocebus sabaeus
Escherichia coli [4] = test: Antimicrobial activity against Escherichia coli NCTC 10418 after 18 to 20 hr by agar dilution method; format: functional
Vibrio parahaemolyticus = test: Antimicrobial activity against Vibrio parahaemolyticus after 18 to 20 hr by agar dilution method; format: functional
Proteus mirabilis = test: Antimicrobial activity against Proteus mirabilis after 18 to 20 hr by agar dilution method; format: functional
Priestia megaterium = test: Antimicrobial activity against Bacillus megaterium after 18 to 20 hr by agar dilution method; format: functional
Proteus vulgaris = test: Antimicrobial activity against Proteus vulgaris after 18 to 20 hr by agar dilution method; format: functional
Shigella boydii = test: Antimicrobial activity against Shigella boydii after 18 to 20 hr by agar dilution method; format: functional
Salmonella paratyphi = test: Antimicrobial activity against Salmonella enterica subsp. enterica serovar Paratyphi A after 18 to 20 hr by agar dilution method; format: functional
[5] = tested on: Human immunodeficiency virus 1; test: Antiviral activity against Human immunodeficiency virus 1 IIIB infected MT4 cells assessed as inhibition of virus-induced cytopathicity after 5 days by MTT assay; format: functional, organism-based; details: MT4, 120 h
Hepatitis C virus = test: Antiviral activity against Hepatitis C virus BM4-5 infected in Huh7 cells assessed as inhibition of viral RNA replication by phosphor screening method; format: functional, Hepacivirus hominis, Huh-7
[6] = tested on: Human immunodeficiency virus 1; test: Antiviral activity against Human immunodeficiency virus 1 IIIB infected CEM cells assessed as protection against viral infection after 6 days by XTT assay; format: functional, CCRF-CEM; parameters: concentration or dose not given beside the values
Shigella sonnei = test: Antimicrobial activity against Shigella sonnei after 18 to 20 hr by agar dilution method; format: functional
Salmonella typhi = test: Antimicrobial activity against Salmonella enterica subsp. enterica serovar Typhi after 18 to 20 hr by agar dilution method; format: functional
[7] = target: Human immunodeficiency virus type 1 reverse transcriptase (Human immunodeficiency virus 1, UniProt Q72547); test: Inhibition of Human immunodeficiency virus 1 RT using Poly(vC)oligo (dG) as template/primer after 30 min
Plesiomonas = test: Antimicrobial activity against Plesiomonas after 18 to 20 hr by agar dilution method; format: functional
[8] = Cytotoxicity against Homo sapiens (human) CEM cells after 5 days by MTT assay; format: cell-based; details: CEM cells (CCRF-CEM)
Vibrio mimicus = test: Antimicrobial activity against Vibrio mimicus after 18 to 20 hr by agar dilution method; format: functional
Escherichia coli [9] = test: Ratio of ciproflaxacin ED50 to compound ED50 for Escherichia coli NCTC 10418 infected in po dosed CF mouse; format: functional
Pseudomonas aeruginosa = test: Antimicrobial activity against Pseudomonas aeruginosa after 18 to 20 hr by agar dilution method; format: functional
Klebsiella pneumoniae [10] = test: Antimicrobial activity against Klebsiella pneumoniae subsp. ozaenae after 18 to 20 hr by agar dilution method; format: functional
Edwardsiella tarda = test: Antimicrobial activity against Edwardsiella tarda after 18 to 20 hr by agar dilution method; format: functional
Enterobacter = test: Antimicrobial activity against Enterobacter after 18 to 20 hr by agar dilution method; format: functional
[11] = Cytotoxicity against Homo sapiens (human) HuH7 cells assessed as cell growth at 50 ug/ml after 3 days by Neutral red assay; format: cell-based, Huh-7; details: read-out: Activity
Vibrio cholerae [12] = test: Antimicrobial activity against Vibrio cholerae 01 after 18 to 20 hr by agar dilution method; format: functional; details: 1
[13] = Selectivity index, ratio of CC50 for human MT4 cells to EC50 for HIV1 3B infected in MT4 cells; format: toxicity, cell-based; details: read-out: Ratio CC50/EC50
[14] = tested on: Mycobacterium tuberculosis; test: Antimycobacterial activity against Mycobacterium tuberculosis H37Rv ATCC 27294; format: functional
[15] = tested on: Mycobacterium tuberculosis; test: Antimycobacterial activity against Mycobacterium tuberculosis H37Rv ATCC 27294 at 6.25 ug/ml by MABA; format: functional
Citrobacter freundii = test: Antimicrobial activity against Citrobacter freundii after 18 to 20 hr by agar dilution method; format: functional
Vibrio fluvialis = test: Antimicrobial activity against Vibrio fluvialis after 18 to 20 hr by agar dilution method; format: functional
Salmonella typhimurium = test: Antimicrobial activity against Salmonella enterica subsp. enterica serovar Typhimurium after 18 to 20 hr by agar dilution method; format: functional
Morganella morganii = test: Antimicrobial activity against Morganella morganii after 18 to 20 hr by agar dilution method; format: functional
[16] = tested on: Human immunodeficiency virus 1; test: Antiviral activity against Human immunodeficiency virus 1 IIIB infected MT4 cells assessed as protection against viral infection after 5 days by MTT assay; format: functional; parameters: concentration or dose not given beside the values
Salmonella enteritidis = test: Antimicrobial activity against Salmonella enterica subsp. enterica serovar Enteritidis after 18 to 20 hr by agar dilution method; format: functional
Klebsiella pneumoniae [17] = test: Antimicrobial activity against Klebsiella pneumoniae after 18 to 20 hr by agar dilution method; format: functional
Vibrio cholerae [18] = test: Antimicrobial activity against Vibrio cholerae 0139 after 18 to 20 hr by agar dilution method; format: functional; details: 139

COc1cc(Cc2cnc(/N=C3\C(=O)N(CN4CCN(c5cc6c(cc5F)c(=O)c(C(=O)O)cn6C5CC5)CC4)c4ccc(Cl)cc43)nc2N)cc(OC)c1OC
MIC (Staphylococcus aureus): 4.88 µg/mL (≈ 6.12 µM)
ED50 (Escherichia coli [1]): 0.62 mg/kg
CC50 at 120 h [2]: 187 µg/mL (≈ 234 µM)
EC50 [3]: > 200 µg/mL
Activity (Vero): Non-toxic
MIC (Escherichia coli [4]): 0.0381 µg/mL (≈ 0.0478 µM)
MIC (Vibrio parahaemolyticus): 0.0763 µg/mL (≈ 0.0957 µM)
MIC (Proteus mirabilis): 0.019 µg/mL (≈ 0.0238 µM)
MIC (Priestia megaterium): 0.019 µg/mL (≈ 0.0238 µM)
MIC (Proteus vulgaris): 0.0095 µg/mL (≈ 0.0119 µM)
MIC (Shigella boydii): 2.44 µg/mL (≈ 3.06 µM)
MIC (Salmonella paratyphi): 0.153 µg/mL (≈ 0.191 µM)
EC50 [5]: 9.4 µg/mL (≈ 11.8 µM)
inhibition (INH) (Hepatitis C virus): 86%
Activity [6]: 33.3%
MIC (Shigella sonnei): 0.31 µg/mL (≈ 0.389 µM)
MIC (Salmonella typhi): 0.305 µg/mL (≈ 0.383 µM)
IC50 [7]: 18.4 µM
MIC (Plesiomonas): 1.22 µg/mL (≈ 1.53 µM)
CC50 at 120 h [8]: > 200 µg/mL
MIC (Vibrio mimicus): 0.0095 µg/mL (≈ 0.0119 µM)
Ratio ED50 (Escherichia coli [9]): 2
MIC (Pseudomonas aeruginosa): 1.22 µg/mL (≈ 1.53 µM)
MIC (Klebsiella pneumoniae [10]): 4.83 µg/mL (≈ 6.06 µM)
MIC (Edwardsiella tarda): 0.019 µg/mL (≈ 0.0238 µM)
MIC (Enterobacter): 0.0381 µg/mL (≈ 0.0478 µM)
viability at 72 h, 50 ug/ml [11]: 109%
MIC (Vibrio cholerae [12]): 4.88 µg/mL (≈ 6.12 µM)
selectivity ratio [13]: > 19
MIC [14]: 3.13 µg/mL (≈ 3.93 µM)
inhibition at 6.25 µg/mL [15]: 100%
MIC (Citrobacter freundii): 1.22 µg/mL (≈ 1.53 µM)
MIC (Vibrio fluvialis): 0.0095 µg/mL (≈ 0.0119 µM)
MIC (Salmonella typhimurium): 0.0047 µg/mL (≈ 0.0059 µM)
MIC (Morganella morganii): 1.22 µg/mL (≈ 1.53 µM)
Activity [16]: 101%
MIC (Salmonella enteritidis): 0.61 µg/mL (≈ 0.766 µM)
MIC (Klebsiella pneumoniae [17]): 0.31 µg/mL (≈ 0.389 µM)
MIC (Vibrio cholerae [18]): 0.019 µg/mL (≈ 0.0238 µM)

CCn1cc(C(=O)O)c(=O)c2cc(F)c(N3CCN(CN4C(=O)/C(=N\c5ncc(Cc6cc(OC)c(OC)c(OC)c6)c(N)n5)c5cc(Cl)ccc54)C(C)C3)c(F)c21 (stereo unspecified)
MIC (Staphylococcus aureus): 0.0763 µg/mL (≈ 0.0934 µM)
ED50 (Escherichia coli [1]): 1.25 mg/kg
CC50 at 120 h [2]: 36.9 µg/mL (≈ 45.2 µM)
EC50 [3]: > 18.7 µg/mL
Activity (Vero): Non-toxic
MIC (Escherichia coli [4]): 0.153 µg/mL (≈ 0.187 µM)
MIC (Vibrio parahaemolyticus): 0.0047 µg/mL (≈ 0.00575 µM)
MIC (Proteus mirabilis): 0.0763 µg/mL (≈ 0.0934 µM)
MIC (Priestia megaterium): 0.019 µg/mL (≈ 0.0232 µM)
MIC (Proteus vulgaris): 0.153 µg/mL (≈ 0.187 µM)
MIC (Shigella boydii): 0.305 µg/mL (≈ 0.373 µM)
MIC (Salmonella paratyphi): 0.019 µg/mL (≈ 0.0232 µM)
EC50 [5]: 17.2 µg/mL (≈ 21 µM)
inhibition (INH) (Hepatitis C virus): 60%
Activity [6]: 48.3%
MIC (Shigella sonnei): 4.88 µg/mL (≈ 5.97 µM)
MIC (Salmonella typhi): 0.019 µg/mL (≈ 0.0232 µM)
MIC (Plesiomonas): 1.22 µg/mL (≈ 1.49 µM)
CC50 at 120 h [8]: 18.7 µg/mL (≈ 22.9 µM)
MIC (Vibrio mimicus): 0.0381 µg/mL (≈ 0.0466 µM)
MIC (Pseudomonas aeruginosa): 0.153 µg/mL (≈ 0.187 µM)
MIC (Klebsiella pneumoniae [10]): 19.5 µg/mL (≈ 23.9 µM)
MIC (Edwardsiella tarda): 0.0763 µg/mL (≈ 0.0934 µM)
MIC (Enterobacter): 0.0095 µg/mL (≈ 0.0116 µM)
viability at 72 h, 50 ug/ml [11]: 85%
MIC (Vibrio cholerae [12]): 0.0095 µg/mL (≈ 0.0116 µM)
selectivity ratio [13]: 3
MIC [14]: 1.56 µg/mL (≈ 1.91 µM)
inhibition at 6.25 µg/mL [15]: 100%
MIC (Citrobacter freundii): 0.0047 µg/mL (≈ 0.00575 µM)
MIC (Vibrio fluvialis): 0.019 µg/mL (≈ 0.0232 µM)
MIC (Salmonella typhimurium): 0.0381 µg/mL (≈ 0.0466 µM)
MIC (Morganella morganii): 0.153 µg/mL (≈ 0.187 µM)
Activity [16]: 89%
MIC (Salmonella enteritidis): 0.0095 µg/mL (≈ 0.0116 µM)
MIC (Klebsiella pneumoniae [17]): 9.77 µg/mL (≈ 11.9 µM)
MIC (Vibrio cholerae [18]): 0.0381 µg/mL (≈ 0.0466 µM)

COc1cc(Cc2cnc(/N=C3\C(=O)N(CN4CCN(c5c(F)cc6c(=O)c(C(=O)O)cn(C7CC7)c6c5F)CC4C)c4ccc(Cl)cc43)nc2N)cc(OC)c1OC (stereo unspecified)
MIC (Staphylococcus aureus): 0.019 µg/mL (≈ 0.0229 µM)
EC50 [3]: > 67 µg/mL
Activity (Vero): Non-toxic
MIC (Escherichia coli [4]): 0.0763 µg/mL (≈ 0.092 µM)
MIC (Vibrio parahaemolyticus): 0.0763 µg/mL (≈ 0.092 µM)
MIC (Proteus mirabilis): 0.0763 µg/mL (≈ 0.092 µM)
MIC (Priestia megaterium): 0.019 µg/mL (≈ 0.0229 µM)
MIC (Proteus vulgaris): 0.0763 µg/mL (≈ 0.092 µM)
MIC (Shigella boydii): 0.0381 µg/mL (≈ 0.0459 µM)
MIC (Salmonella paratyphi): 0.153 µg/mL (≈ 0.184 µM)
Activity [6]: 20.04%
MIC (Shigella sonnei): 0.152 µg/mL (≈ 0.183 µM)
MIC (Salmonella typhi): 0.019 µg/mL (≈ 0.0229 µM)
MIC (Plesiomonas): 0.0381 µg/mL (≈ 0.0459 µM)
CC50 at 120 h [8]: 67 µg/mL (≈ 80.8 µM)
MIC (Vibrio mimicus): 0.019 µg/mL (≈ 0.0229 µM)
MIC (Pseudomonas aeruginosa): 0.019 µg/mL (≈ 0.0229 µM)
MIC (Klebsiella pneumoniae [10]): 0.0381 µg/mL (≈ 0.0459 µM)
MIC (Edwardsiella tarda): 0.0763 µg/mL (≈ 0.092 µM)
MIC (Enterobacter): 0.019 µg/mL (≈ 0.0229 µM)
MIC (Vibrio cholerae [12]): 0.61 µg/mL (≈ 0.736 µM)
MIC [14]: 3.13 µg/mL (≈ 3.77 µM)
inhibition at 6.25 µg/mL [15]: 100%
MIC (Citrobacter freundii): 0.0095 µg/mL (≈ 0.0115 µM)
MIC (Vibrio fluvialis): 0.019 µg/mL (≈ 0.0229 µM)
MIC (Salmonella typhimurium): 0.0381 µg/mL (≈ 0.0459 µM)
MIC (Morganella morganii): 0.0381 µg/mL (≈ 0.0459 µM)
MIC (Salmonella enteritidis): 0.019 µg/mL (≈ 0.0229 µM)
MIC (Klebsiella pneumoniae [17]): 2.44 µg/mL (≈ 2.94 µM)
MIC (Vibrio cholerae [18]): 0.153 µg/mL (≈ 0.184 µM)
